Reference: patent publication US20260008757A1, “N-(3-(AMINOMETHYL)-PHENYL)-5-(4-PHENYL)-5-(TRIFLUOROMETHYL)-4,5-DIHYDROISOXAZOL-3-AMINE DERIVATIVES AND SIMILAR COMPOUNDS AS PESTICIDES” (BASF SE, priority 2022, published 2026)

Tests used:
Type in all cases: in vivo
[1] = system: Frankliniella occidentalis; assay: Western Flower Thrips (Frankliniella occidentalis) mortality on treated cotton leaf discs, comparative experiment; conditions: foliar, 48 h, thrips mortality at 2 DAT, read-out: mortality in comparison with untreated controls
Description: The active compounds were formulated by a Tecan liquid handler in 100% cyclohexanone as a 10,000 ppm solution supplied in tubes. The 10,000 ppm solution was serially diluted in 100% cyclohexanone to make interim solutions. These served as stock solutions for which final dilutions were made by the Tecan in 50% acetone:50% water (v/v) into 10 or 20 ml glass vials. A nonionic surfactant (Kinetic®) was included in the solution at a volume of 0.01% (v/v). The vials were then inserted into an automated electrostatic sprayer equipped with an atomizing nozzle for application to plants/insects. Small (˜2″ in height) cotton plants were sprayed with test compounds at concentrations ranging from 300 to 0.01 ppm in acetone/water through the automated VPS. After drying, cotton leaves were removed, and circular leaf discs (˜1 cm diameter) were punched from the treated surface and transferred to clean 20 mL scintillation vials. Ten Western flower thrips (FRANOC) were aspirated into each scintillation vial. The vials with the leaf discs and thrips were kept in an upright incubator at 25° C. and 50% relative humidity with a 14:10 light:dark photoperiod. Each treatment was replicated twice. Thrips mortality was assessed at 2 DAT (days after treatment), counting all thrips both dead and alive.

Spodoptera eridania = assay: Southern Armyworm (Spodoptera eridania), 2nd instar larvae, on sprayed lima bean plants, comparative experiment; conditions: 96 h, 4 days after treatment, read-out: mortality in comparison with untreated controls
Description: The active compounds were formulated by a Tecan liquid handler in 100% cyclohexanone as a 10,000-ppm solution supplied in tubes. The 10,000-ppm solution was serially diluted in 100% cyclohexanone to make interim solutions. These served as stock solutions for which final dilutions were made by the Tecan in 50% acetone:50% water (v/v) into 10 or 20 ml glass vials. A nonionic surfactant (Kinetic®) was included in the solution at a volume of 0.01% (v/v). The vials were then inserted into an automated electrostatic sprayer equipped with an atomizing nozzle for application to plants/insects. Lima bean plants (variety Sieva) were grown 2 plants to a pot and selected for treatment at the 1st true leaf stage. Test solutions were sprayed onto the foliage by an auto-mated electrostatic plant sprayer equipped with an atomizing spray nozzle. The plants were dried in the sprayer fume hood and then removed from the sprayer. Each pot was placed into perforated plastic bags with a zip closure. Ten to 11 armyworm larvae were placed into the bag and the bags zipped closed. Test plants were maintained in a growth room at about 25° C. and about 20-40% relative humidity for 4 days, avoiding direct exposure to fluorescent light (14:10 light:dark photoperiod) to prevent trapping of heat inside the bags. Mortality and reduced feeding were assessed 4 days after treatment, compared to untreated control plants.

Myzus persicae = assay: Green Peach Aphid (Myzus persicae), mixed life stages, systemic artificial diet test; conditions: 72 h, aphid mortality after 3 days, read-out: mortality in comparison with untreated controls
Source text: For evaluating control of Green Peach Aphid through systemic means the test unit consisted of 96-well-microtiter plates containing liquid artificial diet under an artificial membrane. The compounds were formulated using a solution containing 75% v/v water and 25% v/v DMSO. Different concentrations of formulated compounds were pipetted into the aphid diet, using a custom-built pipette, at two replications. After application, 5-8 adult aphids were placed on the artificial membrane inside the microtiter plate wells. The aphids were then allowed to suck on the treated aphid diet and incubated at about 23±1° C. and about 50±5% relative humidity for 3 days. Aphid mortality and fecundity was then visually assessed.

Heliothis virescens = assay: Tobacco Budworm (Heliothis virescens) egg and larval mortality, microtiter plate diet test; conditions: 120 h, egg and larval mortality after 5 days, read-out: mortality in comparison with untreated controls
Description: For evaluating control of Tobacco Budworm, the test unit consisted of 96-well-microtiter plates containing an insect diet and 15-25 H. virescens eggs. The compounds were formulated using a solution containing 75% v/v water and 25% v/v DMSO. Different concentrations of formulated compounds were sprayed onto the insect diet at 10 μl, using a custom-built micro atomizer, at two replications. After application, microtiter plates were incubated at about 28±1° C. and about 80±5% relative humidity for 5 days. Egg and larval mortality was then visually assessed.

Anthonomus grandis = assay: Boll weevil (Anthonomus grandis) egg and larval mortality, microtiter plate diet test; conditions: 120 h, egg and larval mortality after 5 days, read-out: mortality in comparison with untreated controls
Description: For evaluating control of boll weevil, the test unit consisted of 96-well-microtiter plates containing an insect diet and 5-10 A. grandis eggs.
The compounds were formulated using a solution containing 75% v/v water and 25% v/v DMSO. Different concentrations of formulated compounds were sprayed onto the insect diet at 5 μl, using a custom-built micro atomizer, at two replications.
After application, microtiter plates were incubated at about 25±1° C. and about 75±5% relative humidity for 5 days. Egg and larval mortality were then visually assessed.

Compound `N#CC1(NC(=O)c2cc(NC3=NOC(c4cc(Cl)cc(Cl)c4)(C(F)(F)F)C3)ccc2F)CC1` (centres unmarked) [I-30 of WO2022/171472, reference compound] has a mortality at 100 ppm [1] of 19% and a mortality at 1 ppm (Spodoptera eridania) of 0%.
`O=C(NCc1cc(NC2=NOC(c3cc(Cl)cc(Cl)c3)(C(F)(F)F)C2)ccc1F)C1CC1` (centres unmarked) [I-8] gave a mortality at 800 ppm (Myzus persicae) of at least 75%, a mortality at 800 ppm (Heliothis virescens; 800 ppm) of at least 75% and a mortality at 2500 ppm (Heliothis virescens; 2500 ppm) of at least 75%. For the same compound, the mortality at 100 ppm [1] was 100%, the mortality at 800 ppm (Anthonomus grandis) was at least 75% and the mortality at 1 ppm (Spodoptera eridania) was 80%.
